Biological target: T1, beta amyloid (Aβ42) (Homo sapiens, UniProt P05067)
T1 construct: gene APP; synthetic peptide of 42 amino acids β-amyloid Aβ42 (monomers)
Test: ITC with Aβ[…] monomers (supported by fluorescence saturation binding with monomers and fibrils)

T1 sequence (P05067 672-713 limits assumed): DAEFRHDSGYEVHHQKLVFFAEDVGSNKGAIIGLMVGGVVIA

Kd: 4.08 ± 0.2 µM
SMILES: CC1=C(c2nc3ccccc3s2)C(C)=[N+]2C1=C(c1ccc(OCC(=O)NCCCOc3c(I)cc(Cl)c4cccnc34)cc1)c1c(C)cc(C)n1[B-]2(F)F [BDP-CLQ, 2-(4-(2-(benzo[d]thiazol-2-yl)-5,5-difluoro-1,3,7,9-tetramethyl-5H-5λ^4,6λ^4-dipyrrolo [1,2-c:2′,1′-f][1,3,2]diazaborinin-10-yl)phenoxy)-N-(3-((5-chloro-7-iodoquinolin-8-yl)-oxy)propyl)acetamide]
